According to ChEMBL document CHEMBL4311997, “Discovery of a potent histone deacetylase (HDAC) 3/6 selective dual inhibitor” (Eur J Med Chem, 2019):
In brackets after ≈: the same amount, converted by molar mass. Activity calls are given as the source filed them. No cut-off for these calls is given here.

Key:
[1] = target: DNA (cytosine-5)-methyltransferase 3A (Homo sapiens, UniProt Q9Y6K1); experiment: Inhibition of human DNMT3a using lambda DNA as substrate incubated for 1 hr in presence of [3H]-SAM by filter binding method
[2] = Kinetic solubility in pH 7.4 universal buffer measured after 3 hrs by UV spectroscopic analysis; format: physicochemical; conditions: read-out: Kinetic_solubility
[3] = target: Histone deacetylase 11 (Homo sapiens, UniProt Q96DB2); experiment: Inhibition of human HDAC11 using Acetyl-Lys (trifluoroacetyl)-AMC) as substrate incubated for 2 hrs by fluorescence assay
[4] = species: Homo sapiens; experiment: Selectivity ratio of IC50 for inhibition of human HDAC1 to IC50 for inhibition of human HDAC3
[5] = test system: MDA-MB-231; experiment: Induction of apoptosis in human MDA-MB-231 cells assessed as necrotic cells at 3 uM incubated for 48 hrs by Annexin V-FITC/PI staining by flow cytometric analysis (reference value: 15%); format: functional
[6] = Selectivity index, ratio of EC50 for human MDA-MB-231 cells to IC50 for ring stage Plasmodium falciparum 3D7; format: functional; design: reference not given here
[7] = target: Histone-lysine N-methyltransferase SETD7 (Homo sapiens) (UniProt Q8WTS6); experiment: Inhibition of human SET7/9 at 100 uM using core histone as substrate incubated for 1 hr in presence of [3H]-SAM by filter binding method relative to control
[8] = species: Homo sapiens; experiment: Selectivity ratio of IC50 for inhibition of human HDAC2 to IC50 for inhibition of human HDAC3
[9] = Effective permeability of the compound at pH 7.4 measured after 6 hrs by PAMPA assay; format: ADME; conditions: read-out: Peff
[10] = test system: Plasmodium falciparum; experiment: microbe, parasite or virus in culture; format: functional, organism-based; conditions: K1, 48 h
Description: Antimalarial activity against ring stage Plasmodium falciparum K1 incubated for 48 hrs by Hoechst 33342 staining based fluorescence based assay

[11] = test system: OPM-2; experiment: Antiproliferative activity against human OPM2 cells incubated for 48 hrs by CellTiter-Glo luminescent cell viability assay; format: functional, cell-based; conditions: OPM-2, 48 h
[12] = species: Homo sapiens; experiment: Selectivity ratio of IC50 for human HDAC2 to IC50 for human HDAC6
[13] = target: Histone deacetylase 3 (Homo sapiens, UniProt O15379); experiment: Inhibition of human HDAC3 using Arg-His-Lys-Lys (Ac) as substrate incubated for 2 hrs by fluorescence assay
[14] = test system: MDA-MB-231; experiment: Induction of apoptosis in human MDA-MB-231 cells assessed as viable cells at 6 uM incubated for 48 hrs by Annexin V-FITC/PI staining by flow cytometric analysis (reference value: 77%); format: functional; conditions: MDA-MB-231, 48 h, read-out: Activity
[15] = test system: KMS-12-BM; experiment: Effect on human KMS-12-BM cells assessed as increase in H3K9Me2 level at 2.5 to 10 uM incubated for 24 hrs by Western blot analysis; format: functional, cell-based

Sequence of Histone deacetylase 3 (O15379 whole entry): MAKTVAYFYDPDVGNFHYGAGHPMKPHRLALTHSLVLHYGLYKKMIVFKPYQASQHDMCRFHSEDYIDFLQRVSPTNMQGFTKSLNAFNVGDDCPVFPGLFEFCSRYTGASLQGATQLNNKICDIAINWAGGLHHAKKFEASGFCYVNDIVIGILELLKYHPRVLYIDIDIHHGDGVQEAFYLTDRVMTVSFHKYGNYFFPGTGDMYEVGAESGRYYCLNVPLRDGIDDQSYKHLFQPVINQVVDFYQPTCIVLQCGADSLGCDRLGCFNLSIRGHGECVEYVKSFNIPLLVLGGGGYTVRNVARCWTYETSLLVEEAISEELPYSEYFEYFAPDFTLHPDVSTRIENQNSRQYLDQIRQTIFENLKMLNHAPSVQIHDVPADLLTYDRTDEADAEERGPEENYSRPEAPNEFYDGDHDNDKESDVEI
Sequence of Histone deacetylase 11 (Q96DB2 whole entry): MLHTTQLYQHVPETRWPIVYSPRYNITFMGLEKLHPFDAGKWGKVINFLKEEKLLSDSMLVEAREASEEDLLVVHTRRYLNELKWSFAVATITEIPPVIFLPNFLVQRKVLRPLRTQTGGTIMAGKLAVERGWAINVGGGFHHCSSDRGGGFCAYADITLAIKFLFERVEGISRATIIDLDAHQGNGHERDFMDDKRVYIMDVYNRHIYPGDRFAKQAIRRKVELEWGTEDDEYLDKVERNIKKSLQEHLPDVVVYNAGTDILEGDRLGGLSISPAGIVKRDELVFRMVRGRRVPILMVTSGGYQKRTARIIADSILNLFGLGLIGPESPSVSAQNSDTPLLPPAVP
Sequence of DNA (cytosine-5)-methyltransferase 3A (Q9Y6K1 whole entry, looked up): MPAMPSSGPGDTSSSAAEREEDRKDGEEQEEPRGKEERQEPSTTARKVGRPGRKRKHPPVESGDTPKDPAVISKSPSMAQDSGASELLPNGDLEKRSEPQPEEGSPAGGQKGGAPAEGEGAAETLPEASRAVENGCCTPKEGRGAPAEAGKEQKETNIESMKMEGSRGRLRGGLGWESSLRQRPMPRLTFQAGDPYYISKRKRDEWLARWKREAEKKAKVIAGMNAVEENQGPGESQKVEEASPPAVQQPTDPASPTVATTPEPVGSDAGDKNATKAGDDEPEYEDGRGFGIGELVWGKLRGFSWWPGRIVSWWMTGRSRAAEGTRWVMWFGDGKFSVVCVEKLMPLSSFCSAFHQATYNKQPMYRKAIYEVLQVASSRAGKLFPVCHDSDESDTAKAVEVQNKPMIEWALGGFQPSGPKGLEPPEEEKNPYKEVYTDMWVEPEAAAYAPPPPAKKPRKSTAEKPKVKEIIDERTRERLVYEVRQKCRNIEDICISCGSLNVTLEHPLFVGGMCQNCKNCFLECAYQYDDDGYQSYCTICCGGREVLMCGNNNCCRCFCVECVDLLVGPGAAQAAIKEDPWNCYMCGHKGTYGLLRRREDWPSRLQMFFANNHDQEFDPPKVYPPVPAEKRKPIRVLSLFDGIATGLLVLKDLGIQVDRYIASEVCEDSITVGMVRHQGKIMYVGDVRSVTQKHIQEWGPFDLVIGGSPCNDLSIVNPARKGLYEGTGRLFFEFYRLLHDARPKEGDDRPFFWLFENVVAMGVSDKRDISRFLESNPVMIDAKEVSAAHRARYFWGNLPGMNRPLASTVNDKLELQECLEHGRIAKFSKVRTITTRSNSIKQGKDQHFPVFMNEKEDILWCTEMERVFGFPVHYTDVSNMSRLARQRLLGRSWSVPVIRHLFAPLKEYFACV
Sequence of Histone-lysine N-methyltransferase SETD7 (Homo sapiens) (Q8WTS6 whole entry): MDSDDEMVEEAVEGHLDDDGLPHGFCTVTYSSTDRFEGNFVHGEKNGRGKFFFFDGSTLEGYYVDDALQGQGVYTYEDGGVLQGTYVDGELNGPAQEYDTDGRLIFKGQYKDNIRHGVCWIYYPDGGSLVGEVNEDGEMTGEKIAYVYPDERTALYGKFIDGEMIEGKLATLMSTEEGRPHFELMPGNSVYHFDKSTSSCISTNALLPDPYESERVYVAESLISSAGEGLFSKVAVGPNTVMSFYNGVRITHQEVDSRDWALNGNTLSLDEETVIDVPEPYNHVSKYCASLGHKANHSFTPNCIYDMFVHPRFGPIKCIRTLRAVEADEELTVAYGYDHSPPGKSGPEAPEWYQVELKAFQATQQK

IC50 [1]: 74000 nM
solubility kinetic at 3 h [2]: 4.6 µM (≈ 3.15 µg/mL)
IC50 [3]: 1810 nM
Ratio IC50 [4]: 26 to 33
inhibition [7]: 19%
Ratio IC50 [8]: 26 to 33
Papp at 6 h [9]: 21.8 ×10⁻⁶ cm/s
IC50 [10]: 508 nM
Ratio IC50 [12]: 435
IC50 [13]: 34 nM
Structure (SMILES): COc1ccc(CN2CCC(Nc3nc(Nc4ccc(NC(=O)CCCCCCC(=O)NO)cc4)nc4cc(OC)c(OC)cc34)CC2)cc1
Activity [5]: 15%
Selectivity Index [6]: 43
EC50 [11]: 7900 nM
viability at 6 µM [14]: 52%
Activity [15]: Active
